*1 amine or outer side, *2 acyl side, *3 side chain or, on linkers, in order; H or OH if unused. Where a SMILES comes first, the peptide text is derived from it. Side-chain parts run from the residue outwards. [ ]: non-standard residue; d: D form. The star is where a group is joined. Docosanoyl = CCCCCCCCCCCCCCCCCCCCCC(=O)*; Arg(Me2s) = CN=C(NC)NCCC[C@H](N)C(=O)O; γGlu = O=C(O)[C@H](CCC(=O)[*:2])N[*:1]; Pentadecanoyl = CCCCCCCCCCCCCCC(=O)*; Stearoyl = CCCCCCCCCCCCCCCCCC(=O)*; Palmitoyl = CCCCCCCCCCCCCCCC(=O)*; αMeK = C[C@](N)(CCCCN)C(=O)O; Nle = CCCC[C@H](N)C(=O)O; AEEA = NCCOCCOCC(=O)O; Aib = CC(C)(N)C(=O)O
Target: T1, RXFP1 (Homo sapiens, UniProt Q9HBX9)
T1 construct: OVCAR5 cells expressing endogenous RXFP1; endogenous in cells; host or cells: OVCAR5 cells
T1 sequence (Q9HBX9 1-757): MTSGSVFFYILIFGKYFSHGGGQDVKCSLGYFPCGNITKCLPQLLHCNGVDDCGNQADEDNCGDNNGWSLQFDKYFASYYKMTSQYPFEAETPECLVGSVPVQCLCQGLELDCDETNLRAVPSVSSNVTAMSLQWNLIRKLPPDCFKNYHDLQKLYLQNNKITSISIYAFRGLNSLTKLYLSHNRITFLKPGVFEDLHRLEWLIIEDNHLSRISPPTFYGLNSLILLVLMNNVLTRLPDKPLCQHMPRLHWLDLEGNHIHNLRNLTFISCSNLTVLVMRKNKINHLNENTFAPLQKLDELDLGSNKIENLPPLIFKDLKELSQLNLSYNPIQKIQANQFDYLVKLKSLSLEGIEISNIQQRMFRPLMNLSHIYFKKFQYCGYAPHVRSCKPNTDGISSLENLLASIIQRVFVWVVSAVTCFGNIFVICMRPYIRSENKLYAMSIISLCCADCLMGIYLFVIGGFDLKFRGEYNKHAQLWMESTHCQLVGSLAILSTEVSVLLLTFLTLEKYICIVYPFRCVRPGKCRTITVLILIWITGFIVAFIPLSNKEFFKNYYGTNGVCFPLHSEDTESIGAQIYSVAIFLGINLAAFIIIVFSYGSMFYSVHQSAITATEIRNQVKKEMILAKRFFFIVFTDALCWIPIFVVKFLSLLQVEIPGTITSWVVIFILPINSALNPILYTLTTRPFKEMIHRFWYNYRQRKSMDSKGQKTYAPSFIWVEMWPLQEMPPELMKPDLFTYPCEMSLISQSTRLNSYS
Experiment: OVCAR5 cAMP assay (HTRF), RXFP1 agonist activity
Format: cell-based
Settings: for Emax: OVCAR-5, maximal cAMP relative to H2-relaxin maximum (100%), read-out: EMax, OVCAR 5 cells (cAMP); for EC50: OVCAR5 cells, cAMP HTRF, read-out: EC50 (nM), OVCAR 5 cells (cAMP)
Method in brief: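 cAMP accumulation readout: after 1 mM IBMX for 40 min, endogenous-RXFP1 OVCAR5 cells got rising peptide concentrations without FCS, 30 min, 37° C, then lysis with HTRF cAMP reagents. Nonlinear regression gave EC50; Emax expressed relative to H2-relaxin maximum, same occasion.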

| Compound | Emax [%] | EC50 [nM] |
| --- | --- | --- |
| CCCCCCCCCCCCCCCC(=O)N[C@@H](CCC(=O)N[C@@H](CCC(=O)N[C@@H](CCC(=O)NCCOCCOCC(=O)NCCOCCOCC(=O)NCCOCCOCC(=O)NCCOCCOCC(=O)NCCCC[C@H](NC(=O)[C@H](CCCCNC(C)=O)NC(=O)[C@H](CCCCN)NC(=O)[C@H](CCCNC(=N)N)NC(=O)C(C)(C)NC(=O)[C@H](CO)NC(=O)[C@H](Cc1ccccc1)NC(=O)[C@@H](NC(=O)[C@H](CO)NC(=O)[C@H](CCCC)NC(=O)CNC(=O)[C@H](CCC(=O)O)NC(=O)C(C)(C)NC(=O)C(C)(C)NC(=O)[C@@H](NC(=O)[C@H](CCCCNC(C)=O)NC(=O)[C@H](C)NC(=O)[C@H](CCCNC(=N)N)NC(=O)[C@@H](NC(=O)[C@H](CCCCN)NC(=O)[C@H](CCC(=O)O)NC(=O)[C@H](CCCNC(=N)N)NC(=O)CNC(=O)[C@H](CCC(=O)O)NC(=O)[C@H](CC(C)C)NC(C)=O)C(C)C)[C@@H](C)CC)[C@@H](C)O)C(N)=O)C(=O)O)C(=O)O)C(=O)O [compound 153] (Ac-LEGREKVRAK(Ac)I[Aib][Aib]EG[Nle]STFS[Aib]RKK(Ac)K([AEEA-AEEA-AEEA-AEEA-γGlu-γGlu-γGlu-Palmitoyl])-NH2) | 89 | 0.26 |
| CCCCCCCCCCCCCCC(=O)N[C@@H](CCC(=O)N[C@@H](CCC(=O)N[C@@H](CCC(=O)N[C@@H](CCC(=O)NCCCC[C@H](NC(=O)COCCOCCNC(=O)COCCOCCNC(=O)COCCOCCNC(=O)COCCOCCNC(=O)[C@H](CCCCNC(C)=O)NC(=O)[C@H](C)NC(=O)[C@H](CCCNC(=N)N)NC(=O)[C@](C)(CCCCN)NC(=O)[C@H](CO)NC(=O)[C@H](Cc1ccccc1)NC(=O)[C@@H](NC(=O)[C@H](CO)NC(=O)[C@H](CCCC)NC(=O)CNC(=O)[C@H](CCC(=O)O)NC(=O)C(C)(C)NC(=O)C(C)(C)NC(=O)[C@@H](NC(=O)[C@H](CCCCNC(C)=O)NC(=O)[C@H](C)NC(=O)[C@H](CCCNC(=N)N)NC(=O)[C@@H](NC(=O)[C@H](CCCCN)NC(=O)[C@H](CCC(=O)O)NC(=O)[C@H](CCCNC(=N)N)NC(=O)CNC(=O)[C@H](CCC(=O)O)NC(=O)[C@H](CC(C)C)NC(C)=O)C(C)C)[C@@H](C)CC)[C@@H](C)O)C(N)=O)C(=O)O)C(=O)O)C(=O)O)C(=O)O [compound 167] (Ac-LEGREKVRAK(Ac)I[Aib][Aib]EG[Nle]STFS[αMeK]RAK(Ac)[AEEA][AEEA][AEEA][AEEA]K([γGlu-γGlu-γGlu-γGlu-Pentadecanoyl])-NH2) | 93 | 0.05 |
| CCCCCCCCCCCCCCCCCC(=O)N[C@@H](CCC(=O)N[C@@H](CCC(=O)N[C@@H](CCC(=O)NCCOCCOCC(=O)NCCOCCOCC(=O)NCCOCCOCC(=O)NCCCC[C@H](NC(=O)[C@H](CCCCNC(C)=O)NC(=O)[C@H](CCCCN)NC(=O)[C@H](CCCNC(=NC)NC)NC(=O)C(C)(C)NC(=O)[C@H](CO)NC(=O)[C@H](Cc1c[nH]c2ccccc12)NC(=O)[C@@H](NC(=O)[C@H](CO)NC(=O)[C@H](CCCC)NC(=O)CNC(=O)[C@H](CCC(=O)O)NC(=O)C(C)(C)NC(=O)C(C)(C)NC(=O)[C@@H](NC(=O)[C@H](CCCCNC(C)=O)NC(=O)[C@H](C)NC(=O)[C@H](CCCNC(=N)N)NC(=O)[C@@H](NC(=O)[C@H](CCCCN)NC(=O)[C@H](CCC(=O)O)NC(=O)[C@H](CCCNC(=N)N)NC(=O)CNC(=O)[C@H](CCC(=O)O)NC(=O)[C@H](CC(C)C)NC(C)=O)C(C)C)[C@@H](C)CC)[C@@H](C)O)C(N)=O)C(=O)O)C(=O)O)C(=O)O [compound 148] (Ac-LEGREKVRAK(Ac)I[Aib][Aib]EG[Nle]STWS[Aib][Arg(Me2s)]KK(Ac)K([AEEA-AEEA-AEEA-γGlu-γGlu-γGlu-Stearoyl])-NH2) | 94 |  |

Now from value to molecule:

| Emax [%] | EC50 [nM] | Compound |
| --- | --- | --- |
| 100 |  | CCCCCCCCCCCCCCCCCC(=O)NCCOCCOCC(=O)NCCOCCOCC(=O)NCCCC[C@H](NC(=O)[C@H](CCCCNC(C)=O)NC(=O)[C@H](CCCCN)NC(=O)[C@H](CCCNC(=N)N)NC(=O)C(C)(C)NC(=O)[C@H](CO)NC(=O)[C@H](Cc1c[nH]c2ccccc12)NC(=O)[C@@H](NC(=O)[C@H](CO)NC(=O)[C@H](CCCC)NC(=O)CNC(=O)[C@H](CCC(=O)O)NC(=O)C(C)(C)NC(=O)C(C)(C)NC(=O)[C@@H](NC(=O)[C@H](CCC(N)=O)NC(=O)[C@H](C)NC(=O)[C@H](CCCNC(=N)N)NC(=O)[C@@H](NC(=O)[C@H](CCCCN)NC(=O)[C@H](CCC(=O)O)NC(=O)[C@H](CCCNC(=N)N)NC(=O)CNC(=O)[C@H](CCC(=O)O)NC(=O)[C@H](CC(C)C)NC(C)=O)C(C)C)[C@@H](C)CC)[C@@H](C)O)C(N)=O [compound 51] (Ac-LEGREKVRAQI[Aib][Aib]EG[Nle]STWS[Aib]RKK(Ac)K([AEEA-AEEA-Stearoyl])-NH2) |
| 89 |  | CCCCCCCCCCCCCCCCCC(=O)N[C@@H](CCC(=O)N[C@@H](CCC(=O)N[C@@H](CCC(=O)NCCOCCOCC(=O)NCCOCCOCC(=O)NCCCC[C@H](NC(=O)[C@H](CCCCN)NC(=O)[C@H](CCCNC(=N)N)NC(=O)C(C)(C)NC(=O)[C@H](CO)NC(=O)[C@H](Cc1c[nH]c2ccccc12)NC(=O)[C@@H](NC(=O)[C@H](CO)NC(=O)[C@H](CCCC)NC(=O)CNC(=O)[C@H](CCC(=O)O)NC(=O)C(C)(C)NC(=O)C(C)(C)NC(=O)[C@@H](NC(=O)[C@H](CCC(N)=O)NC(=O)[C@H](C)NC(=O)[C@H](CCCNC(=N)N)NC(=O)[C@@H](NC(=O)[C@H](CCCCN)NC(=O)[C@H](CCC(=O)O)NC(=O)[C@H](CCCNC(=N)N)NC(=O)CNC(=O)[C@H](CCC(=O)O)NC(=O)[C@H](CC(C)C)NC(C)=O)C(C)C)[C@@H](C)CC)[C@@H](C)O)C(N)=O)C(=O)O)C(=O)O)C(=O)O [compound 67] (Ac-LEGREKVRAQI[Aib][Aib]EG[Nle]STWS[Aib]RKK([AEEA-AEEA-γGlu-γGlu-γGlu-Stearoyl])-NH2) |
| 85 | 0.19 | CCCCCCCCCCCCCCCCCCCCCC(=O)N[C@@H](CCC(=O)N[C@@H](CCC(=O)N[C@@H](CCC(=O)NCCOCCOCC(=O)NCCOCCOCC(=O)NCCOCCOCC(=O)NCCCC[C@H](NC(=O)[C@H](CCCCNC(C)=O)NC(=O)[C@H](CCCCN)NC(=O)[C@H](CCCNC(=N)N)NC(=O)C(C)(C)NC(=O)[C@H](CO)NC(=O)[C@H](Cc1c[nH]c2ccccc12)NC(=O)[C@@H](NC(=O)[C@H](CO)NC(=O)[C@H](CCCC)NC(=O)CNC(=O)[C@H](CCC(=O)O)NC(=O)C(C)(C)NC(=O)C(C)(C)NC(=O)[C@@H](NC(=O)[C@H](CCCCNC(C)=O)NC(=O)[C@H](C)NC(=O)[C@H](CCCNC(=N)N)NC(=O)[C@@H](NC(=O)[C@H](CCCCN)NC(=O)[C@H](CCC(=O)O)NC(=O)[C@H](CCCNC(=N)N)NC(=O)CNC(=O)[C@H](CCC(=O)O)NC(=O)[C@H](CC(C)C)NC(C)=O)C(C)C)[C@@H](C)CC)[C@@H](C)O)C(N)=O)C(=O)O)C(=O)O)C(=O)O [compound 173] (Ac-LEGREKVRAK(Ac)I[Aib][Aib]EG[Nle]STWS[Aib]RKK(Ac)K([AEEA-AEEA-AEEA-γGlu-γGlu-γGlu-Docosanoyl])-NH2) |
| 105 | 0.38 | CCCCCCCCCCCCCCCC(=O)N[C@@H](CCC(=O)NCCOCCOCC(=O)N[C@@H](CCC(=O)N[C@@H](CCC(=O)NCCOCCOCC(=O)NCCOCCOCC(=O)NCCCC[C@H](NC(=O)[C@H](CCCCNC(C)=O)NC(=O)[C@H](CCCCN)NC(=O)[C@H](CCCNC(=N)N)NC(=O)C(C)(C)NC(=O)[C@H](CO)NC(=O)[C@H](Cc1c[nH]c2ccccc12)NC(=O)[C@@H](NC(=O)[C@H](CO)NC(=O)[C@H](CCCC)NC(=O)CNC(=O)[C@H](CCC(=O)O)NC(=O)C(C)(C)NC(=O)C(C)(C)NC(=O)[C@@H](NC(=O)[C@H](CCCCNC(C)=O)NC(=O)[C@H](C)NC(=O)[C@H](CCCNC(=N)N)NC(=O)[C@@H](NC(=O)[C@H](CCCCN)NC(=O)[C@H](CCC(=O)O)NC(=O)[C@H](CCCNC(=N)N)NC(=O)CNC(=O)[C@H](CCC(=O)O)NC(=O)[C@H](CC(C)C)NC(C)=O)C(C)C)[C@@H](C)CC)[C@@H](C)O)C(N)=O)C(=O)O)C(=O)O)C(=O)O [compound 165] (Ac-LEGREKVRAK(Ac)I[Aib][Aib]EG[Nle]STWS[Aib]RKK(Ac)K([AEEA-AEEA-γGlu-γGlu-AEEA-γGlu-Palmitoyl])-NH2) |

From US10988523B2, “Modified lipidated Relaxin B chain peptides and their therapeutic use” (Sanofi, priority 2018, dated 2021)
